Source: article PMC4586009, “Phytochemical composition, antiparasitic and α–glucosidase inhibition activities from Pelliciera rhizophorae” (Chemistry Central Journal, 2015)
Where two headings read alike, the source gives them in different places.

Columns and labels:
[1] = target: α-glucosidase from baker's yeast; experiment: α-Glucosidase inhibitory assay (PNP-G substrate) and kinetic analysis; format: biochemical, S. cerevisiae
Description: Lineweaver–Burk plots were constructed using different concentrations of substrate and triterpenes 1–5.
The α-glucosidase inhibitory assay was performed according to Chan and collaborators (2010), with modifications. α-glucosidase from baker’s yeast purchased from Sigma Chemical Co. The inhibition was measured spectrophotometrically at pH 7.0 and 37 °C employing 2 mM p-nitrophenyl α-D-glucopyranoside (PNP-G) as a substrate and 32 mU/mL of enzyme, in 100 mM potassium phosphate buffer (enzyme stock). […] The absorbance (A) of 4-nitrophenol released by the hydrolysis of PNP-G was measured at 400 nm by Synergy HT Bio Tek microplate spectrophotometer. […] After incubating, 150µL of substrate was added and further incubated for 20 min at 37 °C. All assays are performed in 96-well microplates (Greiner bio-one 655101) in duplicate. The activity of samples was calculated as a percentage in comparison to a control (DMSO or MeOH instead of sample solution) according with the following equation:
%Inhibition=(ΔAcontrol-ΔAsample)/ΔAcontrol×100%
The concentration required to inhibit activity of the enzyme by 50 % (IC50) was calculated by regression analysis.

L. donovani = experiment: In vitro antiparasitic assay against L. donovani amastigotes (PicoGreen); format: cell-based; details: Leishmania donovani, I = inactive at 10 µg/mL
Description: Promastigotes cultures of L. donovani are maintained in continuous log phase growth in Liver Infusion Tryptose (LIT) Medium, pH 7.2, supplemented with 10 % Fetal Bovine Serum (FBS) at 28 °C. For promastigote transformation into amastigote forms, 1 mL of promastigotes log phase culture is transferred into 5 mL of Medium 199 Modified (SIGMA-Cat M3769) pH 5.5, supplemented with 0.1 g/L L-glutamine, 2.2 g/L sodium bicarbonate, 2 g Glucose, 5 mL penicillin–streptomycin and 20 % FBS and maintained at 35 °C until its use for bioassays.
(§1) Dry samples were diluted in 100 % DMSO (dimethylsulfoxide) to obtain a concentration of 4 mg/mL. Samples are used immediately in the bioassay and stored at −20 °C in the dark until results are obtained. All assays are performed in sterile 96-well microtitre culture plates (Costar Cat 3595). In a primary screening samples are tested in duplicate wells at a final concentration of 10 μg/mL. […] The IC50 is analyzed with the Excel Add-On software LSW Data Analysis Tool. The concentration that inhibited the growth of the parasites to 50 % (IC50) was calculated through the inhibition curve of the obtained optical density values, and compared to the untreated controls.
(§2) L. donovani and P. falciparum A […] is used to determine the amount of parasites in culture. After 48 and 72 h incubation, respectively, 1 % PicoGreen® solution is added to all wells in the dark. After shaking, the plate is taken into a microplate reader employing 485/20 nm excitation and 528/20 nm emission filter sets.

[2] = Cytotoxicity bioassay (MTT); format: cell-based; details: African green monkey, five days, I = inactive at 10 µg/mL
Description: Vero cells were seeded in 96-well plates in RPM-I1640 medium supplemented with 10 % FBS and 1 % penicillin/streptomycin. The cells were allowed to grow for 24 h before adding the test compounds, dissolved in DMSO, to final concentrations of 10, 4, 0.2 and 0.08 µg/mL. A sample with only a volume of DMSO similar to the added volume in the compounds samples was placed as a negative control in all plates. All samples were incubated for five days before staining and examining for reduction of 3-(4,5-dimethylthiazol-2-yl)-2,5-diphenyltetrazolium bromide (MTT) and analyzed 4 h later in a color plate reader at 570 nm.

T. cruzi [3] = experiment: In vitro T. cruzi growth inhibition, Tulahuen clone C4 expressing β-galactosidase, in Vero cells; format: cell-based; details: Trypanosoma cruzi, strain Tulahuen, I = inactive at 10 µg/mL, read-out: Antiparasitic activity IC50, T. cruzi
Description: T. cruzi (Tulahuen) C4 strain lactosidase (Lac Z) gene. The strain is maintained on VERO Cells (African Green Monkey cell line obtained from ATCC on 2006), grown in monolayers in RPM-I1640 medium, supplemented with 10 % heat inactivated FBS. All cultures and assays are conducted at 37 °C under an atmosphere of 5 % CO2/95 % air mixture.
as §1
T. cruzi In this assay, a colorimetric method is used to determine the inhibition of parasite growth as detected by reduction of β-galactosidase (β-Gal) as a reporter gene, expressed by the Tulahuen clone C4 of T. cruzi. Assays are performed on […], the intracellular form of the parasite infecting African green monkey kidney (VERO) cells, exposed during 120 h to different concentrations (50, 10 and 2 µg/mL) of the test substance. The resulting colour from the cleavage of chlorophenol red-β-D-galactoside (CPRG) by β-Gal expressed by the parasite, was measured using a Benchmark Bio-Rad microplate reader at 570 nm.

P. falciparum [4] = experiment: In vitro antiplasmodial assay, chloroquine-resistant strain Indochina W2 (PicoGreen); format: cell-based; details: Plasmodium falciparum, I = inactive at 10 µg/mL, read-out: Antiparasitic activity IC50, P. falciparum
Description: The cultures are kept in synchrony by thermal cycling incubation and are maintained in continuous log phase growth in RPM-I1640 medium (SIGMA) supplemented with 2 % washed human O Rh positive (+) erythrocytes, 25 mM HEPES, […] NaHCO3, and 10 % Human Serum from an O Rh+ donor. All cultures and assays are conducted at 37 °C under an atmosphere of 5 % CO2 and 5 % O2, with a balance of N2 (90 %).
as §1, §2

P. falciparum [5] = details: read-out: IC50 of positive control for P. falciparum; positive control range; cited from earlier work
T. cruzi [6] = details: read-out: IC50 of positive control for T. cruzi; positive control range; cited from earlier work
[7] = pH 7.0, 37 °C, 2 mM PNP-G, read-out: α-glucosidase inhibition IC50
[8] = α-glucosidase IC50 in Table 2, read-out: IC50
[9] = read-out: IC50, Vero cells (cytotoxicity)

`C[C@H]1[C@H](C)CC[C@]2(C)CC[C@]3(C)C(=CC[C@@H]4[C@@]5(C)CC[C@H](O)C(C)(C)[C@@H]5CC[C@]43C)[C@H]12` [Compound 1, α-amyrine] gave an IC50 [1, 7] of 1.45 µM, an IC50 [1, 8] of 1.45 µM and an IC50 (L. donovani) of over 10 µg/mL. The IC50 at 5 days ([2]; Vero cells) was over 10 µg/mL, the IC50 (T. cruzi [3]) was 19 ± 0.6 µM and the IC50 (P. falciparum [4]) was over 10 µg/mL.
With `CC1(C)CC[C@]2(C(=O)O)CC[C@]3(C)C(=CC[C@@H]4[C@@]5(C)CC[C@H](O)C(C)(C)[C@@H]5CC[C@]43C)[C@@H]2C1` [Compound 4, oleanolic acid] the IC50 [1, 7] was 0.98 µM, the IC50 [1, 8] was 0.98 µM and the IC50 (L. donovani) was 5.3 ± 0.2 µM. For the same compound, the IC50 at 5 days ([2]; Vero cells) was 140.8 ± 0.5 µM, the IC50 (T. cruzi [3]) was over 10 µg/mL and the IC50 (P. falciparum [4]) was over 10 µg/mL.
For `CCN(CC)CCCC(C)Nc1ccnc2cc(Cl)ccc12` (centres unmarked) [Chloroquine], the IC50 (P. falciparum [5]) is given as 0.08 to 0.1 µM.
For `[O-][S@@+]1C[C@H](O)CS1` [Compound 7, iso-brugierol], the melting point was 82 to 83 °C, the “α-glucosidase inhibition IC50” value ([1]; pH 7.0, 37 °C, 2 mM PNP-G) was “inactive” and the IC50 (L. donovani) was over 10 µg/mL. For the same compound, the IC50 at 5 days ([2]; Vero cells) was over 10 µg/mL, the IC50 (T. cruzi [3]) was over 10 µg/mL and the IC50 (P. falciparum [4]) was over 10 µg/mL.
`CC1(C)CC[C@]2(C)CC[C@]3(C)C(=CC[C@@H]4[C@@]5(C)CC[C@H](O)C(C)(C)[C@@H]5CC[C@]43C)[C@@H]2C1` [Compound 2, β-amyrine] gave an IC50 [1, 7] of 0.02 µM, an IC50 [1, 8] of 0.02 µM and an IC50 (L. donovani) of over 10 µg/mL. It also gave an IC50 at 5 days [2, 9] of over 10 µg/mL, an IC50 (T. cruzi [3]) of over 10 µg/mL and an IC50 (P. falciparum [4]) of over 10 µg/mL.
`C[C@@H]1[C@H](O)[C@@H](C)/C=C/C=C/C=C/C=C/C=C/C=C/C=C/[C@H](O[C@@H]2O[C@H](C)[C@@H](O)[C@H](N)[C@@H]2O)C[C@@H]2O[C@](O)(C[C@@H](O)C[C@@H](O)[C@H](O)CC[C@@H](O)C[C@@H](O)CC(=O)O[C@H]1C)C[C@H](O)[C@H]2C(=O)O` [Anfotericine B, Amphotericin B, reference compound] showed an IC50 (L. donovani) of 1 ± 0.12 µM.
`C=C(C)[C@@H]1CC[C@]2(C(=O)O)CC[C@]3(C)[C@H](CC[C@@H]4[C@@]5(C)CC[C@H](O)C(C)(C)[C@@H]5CC[C@]43C)[C@@H]12` [Compound 5, betulinic acid] showed an IC50 [1, 7] of 2.37 µM, an IC50 [1, 8] of 2.37 µM and an IC50 (L. donovani) of over 10 µg/mL. It also gave an IC50 at 5 days [2, 9] of 131.1 ± 0.3 µM, an IC50 (T. cruzi [3]) of over 10 µg/mL and an IC50 (P. falciparum [4]) of 18 ± 0.4 µM.
For `[O-][S@+]1C[C@H](O)CS1` [Compound 6, brugierol], the “α-glucosidase inhibition IC50” value ([1]; pH 7.0, 37 °C, 2 mM PNP-G) was “inactive”, the IC50 (L. donovani) was over 10 µg/mL and the IC50 at 5 days ([2]; Vero cells) was over 10 µg/mL. For the same compound, the IC50 (T. cruzi [3]) was over 10 µg/mL and the IC50 (P. falciparum [4]) was over 10 µg/mL.
`O=c1c(O)c(-c2ccc(O)cc2)oc2cc(O)cc(O)c12` [Compound 8, kaempferol] showed an IC50 [1, 7] of 262 µM, an IC50 (L. donovani) of 22.9 ± 0.2 µM and an IC50 at 5 days ([2]; Vero cells) of 154.9 ± 0.6 µM. The IC50 (T. cruzi [3]) was over 10 µg/mL and the IC50 (P. falciparum [4]) was over 10 µg/mL.
For `CC1CS(=O)(=O)CCN1/N=C/c1ccc([N+](=O)[O-])o1` (centres unmarked) [Nifurtimox, reference compound], the IC50 (T. cruzi [6]) is given as 0.15 to 13.4 µM and the IC50 (T. cruzi [3]) is given as 1.6 ± 0.11 µM.
With `C[C@H]1[C@H](C)CC[C@]2(C(=O)O)CC[C@]3(C)C(=CC[C@@H]4[C@@]5(C)CC[C@H](O)C(C)(C)[C@@H]5CC[C@]43C)[C@H]12` [Compound 3, ursolic acid] the IC50 [1, 7] was 1.08 µM, the IC50 [1, 8] was 1.08 µM and the IC50 (L. donovani) was 2.4 ± 0.1 µM. It also gave an IC50 at 5 days ([2]; Vero cells) of 64.8 ± 0.3 µM, an IC50 (T. cruzi [3]) of over 10 µg/mL and an IC50 (P. falciparum [4]) of 21.9 ± 0.6 µM.
With `O=c1c(O)c(-c2ccc(O)c(O)c2)oc2cc(O)cc(O)c12` [Compound 9, quercetin] the IC50 [1, 7] was 29.8 µM, the IC50 (L. donovani) was 12.6 ± 0.2 µM and the IC50 at 5 days ([2]; Vero cells) was over 10 µg/mL. It also gave an IC50 (T. cruzi [3]) of 13 ± 0.4 µM and an IC50 (P. falciparum [4]) of 9.7 ± 0.3 µM.
With `C[C@H]1O[C@H](O[C@H]2[C@H](O)[C@@H](O)[C@@H](O[C@H]3[C@H](O)[C@@H](O)C(O)O[C@@H]3CO)O[C@@H]2CO)[C@H](O)[C@@H](O)[C@@H]1N[C@H]1C=C(CO)[C@@H](O)[C@H](O)[C@H]1O` (some centres unmarked) [acarbose, reference compound] the “type of α-glucosidase inhibition (Lineweaver–Burk plots)” value ([1]; different concentrations of substrate and inhibitor) was “competitive inhibitor”.
